Measured values as given in US20140335050A1, “METHODS, COMPOSITIONS, AND KITS FOR THE TREATMENT OF CANCER” (The General Hospital Corporation, priority 2011, published 2014).

How the values were obtained:
[1] = test system: B16 murine melanoma cell line; assay: Antibody staining and flow cytometry (intracellular gp100, TRP-2; surface Class I with H2kb antibody); format: cell-based, mouse; settings: 3 days, 17-AEP 0.5, PU-H71 0.15, CCT018159 2.5 μg/ml
Text: To further evaluate enhancement of immune recognition of cancer cells by inhibition of Hsp90 function, it was shown that a total of twelve different Hsp90 inhibitors were active in several molecular and cellular assays on a series of cell lines, including eleven human melanomas, the murine B16 melanoma, and two human gliomas. […] The melanomas all express varying levels of differentiation antigens Melan-A/MART-1, gp100 and TRP-2, as well as the MHC-Class I antigen (as evidenced by W6/32 antibody staining) that is required for T cell recognition of the tumor cells. Each of these antigens is enhanced by all of the Hsp90 inhibitors. […] Similar to the human counterparts, the B16 mouse tumor also can be induced to express enhanced antigen levels upon 3-day exposure to each of the Hsp90 inhibitors (Table 16). The mouse H-2 Class I antigen is likewise induced by the Hsp90 inhibitors.
General culture conditions for cell propagation and the origins of most of the melanoma cell lines have been previously described. Melanoma cells were cultured in DMEM with 10% FBS. The glioma cell lines U87 MG and U118 MG were obtained from the American Type Culture Collection (ATCC). The B16 murine melanoma cell line was provided by Dr. Andrew Hurwitz and has been previously described. The T cell receptor (TCR)-negative Jurkat T cell line derivative J.RT3-T3.5 was obtained from ATCC. The construction of the J.RT3-T3.5 cell line expressing a Melan-A/MART-1 specific TCR has been described previously. T cells were cultured in RPMI with 10% FBS. IFN-beta-1a (Avonex) was obtained from Biogen-Idec (Cambridge, Mass.) and reconstituted according to the manufacturer's recommendations. The Hsp90 inhibitor radicicol was purchased from A.G. Scientific (San Diego, Calif.). Novobiocin was ordered from BioMol (Plymouth Meeting, Pa.). 17-DMAG was obtained from LC laboratories (Woburn, Mass.). 17-AEP-AP was purchased from InVivoGen (San Diego, Calif.). […] Gedunin, CCT018159, and celastrol were purchased from Tocris (Ellisville, Mo.). Selleck Chemicals (Houston, Tex.) provided NVP-AUY922 and BIIB021.
(§1) Cells were plated at a density of 1×10^5 in 1 ml of medium in a 24-well plate and cultured for varying times as indicated in results. Typically, 3 days of culture in the presence of Hsp90 inhibitors was optimal for the functional studies performed. After incubation, cells were collected by trypsinization and then evaluated by flow cytometry.
(§2) Intracellular staining and flow cytometric analyses of cytoplasmic Melan-A/MART-1, and gp100 expression were performed as described previously. Cells were fixed with 1% formaldehyde, permeabilized with 0.1% saponin, stained with monoclonal antibodies to melanocyte antigens. Antibodies were obtained with specificity for: Melan-A/MART-1 from Vector Labs (Burlingame, Calif.); gp100/HMB45 from DakoCytomation (Carpinteria, Calif.) and then visualized with goat anti-mouse FITC-conjugated secondary antibody from Invitrogen (Frederick, Md.). The level of EGFP was determined by flow cytometry of unfixed cells washed and resuspended in 1×PBS. Surface staining of MHC Class I was carried out using the antibody W6/32 on cells harvested with Cell Stripper from MediaTech Inc. (Manassas, Va.) and carried out on ice.

[2] = test system: 453A melanoma cell line; assay: Intracellular antibody staining and flow cytometry (Melan-A/MART-1, gp100/HMB45); format: cell-based, human; settings: 453A (BRAF M/WT, NRAS WT); 3 days; 17-AEP 1.00, CCT018159 10.00, PU-H71 0.30 μg/ml
Procedure: Cells were fixed with 1% formaldehyde, permeabilized with 0.1% saponin, stained with monoclonal antibodies to melanocyte antigens. Antibodies were obtained with specificity for: MART-1 from Vector Labs (Burlingame, Calif.); gp100 HMB45 from DakoCytomation (Carpinteria, Calif.) and then visualized with goat anti-mouse FITC-conjugated secondary antibody from Invitrogen (Fredrick, Md.). The level of EGFP was determined by flow cytometry of unfixed cells that were washed and resuspended in 1×PBS.
Cells were plated at a density of 1×10^5 in 1 ml of medium in a 24-well plate and cultured for varying times as indicated in results. […] After incubation, cells were collected by trypsinization and then evaluated by flow cytometry.
as §2, with “Surface staining of MHC Class I was carried out using the antibody W6/32 on cells harvested with Cell Stripper from MediaTech Inc. (Manassas, Va.) and carried out on ice.” left out

[3] = test system: MM455 melanoma cell line; assay: Intracellular antibody staining and flow cytometry (gp100/HMB45); format: cell-based, human; settings: MM455 (BRAF M/WT, NRAS WT); 3 days; 17-AEP 0.50, CCT018159 2.50, PU-H71 0.25 μg/ml
Procedure: (§3) Several cell lines expressing varying native-sequences, (wild-type (WT) or mutant (M) alleles of these genes were evaluated), to determine if there is a relationship between levels of Hsp90 inhibitor-mediated antigen up-regulation and BRAF and NRAS mutational status. Mutant status of the NRAS and BRAF loci were determined previously.
as §1
as §2, with “Surface staining of MHC Class I was carried out using the antibody W6/32 on cells harvested with Cell Stripper from MediaTech Inc. (Manassas, Va.) and carried out on ice.” left out

[4] = test system: Roth melanoma cell line; assay: as above; format: cell-based, human; settings: Roth (BRAF WT, NRAS M/M); 3 days; 17-AEP 0.50, CCT018159 2.50, PU-H71 0.25 μg/ml
Procedure: as §3, §1
as §2, with “Surface staining of MHC Class I was carried out using the antibody W6/32 on cells harvested with Cell Stripper from MediaTech Inc. (Manassas, Va.) and carried out on ice.” left out

[5] = test system: tumor cell lines; assay: MHC Class I and Class II surface staining, statements over a panel of tumor cell lines; format: cell-based, human; settings: HeLa, MCF-7, U2-OS, MU-89, U118, Jurkat, Raji (Table 19)
Procedure: For surface staining of HLA Class I and II antigens, cells were harvested using CellStripper™ from Mediatech (Manassas, Va.). All staining steps were performed on ice. Following a first incubation with antibody to Class I (W6/32) or Class II (L243) for 30 minutes. Stained cells were washed twice with cold PBS and then stained with a goat anti-mouse FITC secondary antibody to allow for quantitative analysis by flow cytometry. For evaluation of cytoplasmic antigens, including Melan-A/MART-1 and gp100, cells were first fixed in paraformaldehyde and permeabilized with saponin as previously described. Staining for cytoplasmic antigens was carried out at room temperature (22° C.).

CO[C@H]1/C=C\C=C(/C)C(=O)NC2=CC(=O)C(NCCN3CCCC3)=C(C[C@@H](C)C[C@H](OC)[C@H](O)[C@@H](C)/C=C(\C)[C@@H]1OC(N)=O)C2=O [17-AEP]
Class I, geometric mean of surface staining (H2kb) [1]: 13
TRP-2, geometric mean of intracellular staining [1]: 288
gp100, geometric mean of intracellular staining [1]: 420

CCc1cc(-c2n[nH]c(C)c2-c2ccc3c(c2)OCCO3)c(O)cc1O [CCT018159]
HMB45, level of induction relative to untreated control cells [2]: 3.38
MART-1, level of induction relative to untreated control cells [2]: 3.29
HMB45, level of induction relative to untreated control cells [3]: 1.16
HMB45, level of induction relative to untreated control cells [4]: 1.95
Class I, fold increase relative to untreated control [1]: 6.8 fold
Class I, geometric mean of surface staining (H2kb) [1]: 16
TRP-2, fold increase relative to untreated control [1]: 3.9 fold
TRP-2, geometric mean of intracellular staining [1]: 364
gp100, fold increase relative to untreated control [1]: 5.2 fold
gp100, geometric mean of intracellular staining [1]: 414

CC(C)NCCCn1c(Sc2cc3c(cc2I)OCO3)nc2c(N)ncnc21 [PU-H71]
Class II MHC expression over the tumor panel [5]: no induction
Class I, geometric mean of surface staining (H2kb) [1]: 14
TRP-2, geometric mean of intracellular staining [1]: 360
gp100, geometric mean of intracellular staining [1]: 595
